{"source": "patent US6204284A", "about": "“Use of 1-(substitutedphenyl)-3-azabicyclo[3.1.0]hexanes for the treatment of chemical dependencies” (priority 1995, dated 2001)", "key": {"[1]": {"system": "Male Wistar rats", "assay": "Free-choice ethanol (6% v/v) vs tap water drinking, Part I", "assay_type": "in vivo, rat", "settings": "for Ethanol Intake / Ethanol Preference / Food Consumption / Total Fluid Intake: mean ± S.D.", "description": "Male Wistar rats are presented with an everyday free-choice between a 6% (v/v) ethanol solution and tap water. Following a seven-day baseline period, which establishes a pattern of stable drinking, only those animals whose consumption is greater than 50% of their total fluid intake are given intraperitoneal injections of three drugs. In part I citalopram (positive control) a neuronal serotonin uptake inhibitor at a dose of 30 mg/kg, […], and 1-(3,4-dichlorophenyl)-3-azabicyclo[3.1.0]hexane hydrochloride, also a serotonin uptake inhibitor, at doses of 5, 10 and 20 mg/kg are given by intraperitoneal injection for seven days. In part II, animals are given intraperitoneal injections of diazepam at a dose of 10 mg/kg and again the positive control used is citalopram at 30 mg/kg. Treatment period for part II also is over a seven-day period. Following the seven-day treatment period, a post-treatment period which lasted for an additional seven days is conducted where the animals are presented with a free choice between ethanol and water in order to determine the rate of recovery of ethanol drinking. During baseline, drug treatment and post-treatment periods, ethanol consumption by the rats is calculated in terms of daily ethanol preference ratio (volume of ethanol per volume of total daily fluid intake) and in terms of daily absolute of ethanol ingested (g/kg body weight).\nTwo hundred (200) drug-naive male Wistar rats obtained from the Canadian Breeding Farm Laboratories in Charles River Canada are used. All animals weigh between 180-200 g at the beginning of the experiment.\nAll animals are individually housed in stainless steel cages, in a room regulated for constant temperature, humidity and a 12-hour light/dark cycle (7:00 a.m.-7:00 p.m.). Each cage is equipped with two calibrated glass Richter tubes to deliver the fluids (ethanol and water) to the animals. All animals are presented with a free choice between ethanol and tap water throughout the experiment. The drinking vessels are randomly reversed in order to avoid bias generated by a position preference in the animals. In addition, Purina Rat Chow is made available throughout the experiment on an ad libitum basis.\nAt approximately the same time every day, 1300 h, the volume in mls of ethanol and tap water consumed by each animal is recorded. All tubes are then removed from the cages, rinsed and refilled with the appropriate fluids, i.e., ethanol solution and tap water. Also, all animals are weighed and their corresponding body weights recorded. At this time, additional food is provided.\nDrugs used in part I are dissolved in Ringers solution to form the required doses. Drugs used in part II are suspended in a vehicle which consists of a 2% pre-boiled starch solution containing 5% polyethylene glycol 400 and tween 80 (1 drop/10 ml vehicle). All drugs are administered intraperitoneally according to the schedule (see Treatment period).\nGroup 2--citalopram 30 mg/kg (n=10)\nGroup 3--1-(3,4-dichlorophenyl)-3-azabicyclo[3.1.0]hexane hydrochloride 5 mg/kg (n=10)\nGroup 4--1-(3,4-dichlorophenyl)-3-azabicyclo[3.1.0]hexane hydrochloride 10 mg/kg (n=10)\nGroup 5--1-(3,4-dichlorophenyl)-3-azabicyclo[3.1.0]hexane hydrochloride 20 mg/kg (n=10)\nPost-treatment period:--Upon cessation of the drug treatment period, the animals are presented with a free choice between 6% ethanol and tap water for an additional 7 days in order to determine the rate of recovery of ethanol drinking."}, "[2]": {"system": "Norepinephrine (NE) reuptake in rat brain synaptosomes", "assay": "Inhibition of rat synaptosomal uptake of 3H-norepinephrine", "assay_type": "biochemical", "settings": "rat diencephalic-mid brain crude synaptosomes; 3H-NE 2×10^-8 M; Hill analysis", "description": "(§1) Male Wistar rats weighing approximately 180-200 g are decapitated and their brains rapidly removed and dissected according to the method of Glowinski and Iversen. Glowinski, J. and Iversen, L. L., Regional studies of catecholamines in the rat brain I. The disposition of 3H-norepinephrine, 3H-dopamine and 3H-DOPA in various regions of the brain. J. Neurochem. 13:655-669, 1966.\n(§2) Striatal tissues are pooled from three rat brains for the uptake of 3H-dopamine (3H-DA) and diencephalic-mid brain areas were used for the uptake of 3H-norepinephrine (3H-NE) and 3H-serotonin (3H-5HT). The tissues are immediately weighed and homogenized with a teflon-glass pestle homogenizer in 10 volumes of ice cold 0.32 M sucrose. The homogenates are centrifuged at 4° C. at 900×g for 10 minutes to remove nuclear particles and cellular debris. The supernatants are carefully withdrawn and transferred into clean test tubes kept in ice. Aliquots of these preparations containing crude synaptic nerve endings are used in subsequent uptake studies.\n(§3) Amine uptake in crude synaptosomes is determined by a method essentially the same as that described by Snyder and Coyle, Snyder, S. H. and Coyle, J. T. Regional differences in 3H-norepinephrine and 3H-dopamine uptake into rat brain homogenates. J. Pharmacol. Exp. Ther. 165:78-86, 1969. Briefly, a 0.1 ml aliquot of the above tissue preparation is added to test tubes containing 3.7 ml of Krebs-Ringer phosphate buffer pH 7.4 with glucose (2 mg/ml), calcium chloride 0.024%, ascorbic acid (0.2 mg/ml) and nialamide (1.24×10^-5M). 1-(3,4-Dichlorophenyl)-3-azabicyclo[3.1.0]hexane hydrochloride at varying concentrations (0.01-2.5 μM) is added in a 0.1 ml volume. The incubation mixtures are agitated at 37° C. for 10 minutes under an atmosphere of 95% oxygen and 5% CO2 in a Dubnoff metabolic shaker to ensure irreversible inhibition of monoamine oxidase (MAO). After this initial pre-incubation period, the tubes are returned to the ice bath. 3H-DA, 3H-NE or 3H-5HT is added in a 0.1 ml volume to give a final concentration of labeled amine of 2×10^-8 M, and the incubation at 37° C. is continued for an additional 4 min. A set of tubes serving as control (uptake at 0° C.) is left in an ice bath. After the final incubation period, the samples are cooled in ice and then centrifuged at 4° C. at 10,000×g. The supernatant fluid is gently poured off from each tube. The surface of the pellet of each sample is washed with 5 ml of ice cold 0.9% sodium chloride which is then aspirated off without disturbing the pellet. The pellet is resuspended in a cintillation fluid ad radioactivity was determined. Protein content in the tissue samples is determined by the method of Lowry et al. Lowry, O. H., Rosebrough, N. J., Farr, A. L. and Randall, R. J. Protein measurement with the folin reagent. J. Biol. Chem. 193:265, 1951. The concentration of drug which inhibits the uptake of the labeled amine by 50% is determined by Hill analysis of the data."}, "[3]": {"system": "Serotonin (5-HT) reuptake in rat brain synaptosomes", "assay": "Inhibition of rat synaptosomal uptake of 3H-serotonin", "assay_type": "biochemical", "settings": "rat diencephalic-mid brain crude synaptosomes; 3H-5HT 2×10^-8 M; Hill analysis", "description": "as §1, §2, §3"}, "[4]": {"system": "Dopamine (DA) reuptake in rat brain synaptosomes", "assay": "Inhibition of rat synaptosomal uptake of 3H-dopamine", "assay_type": "biochemical", "settings": "rat striatal crude synaptosomes; 3H-DA 2×10^-8 M; Hill analysis", "description": "as §1\nStriatal tissues are pooled from three rat brains for the uptake of 3H-dopamine (3H-DA) and diencephalic-mid brain areas were used for the uptake of 3H-norepinephrine (3H-NE) and 3H-serotonin (3H-5HT). The tissues are immediately weighed and homogenized with a teflon-glass pestle homogenizer in 10 volumes of ice cold 0.32 M sucrose. […]\nAmine uptake in crude synaptosomes is determined by a method essentially the same as that described by Snyder and Coyle, Snyder, S. H. and Coyle, J. T. Regional differences in 3H-norepinephrine and 3H-dopamine uptake into rat brain homogenates. […] The pellet is resuspended in a cintillation fluid ad radioactivity was determined. Protein content in the tissue samples is determined by the method of Lowry et al. Lowry, O. H., Rosebrough, N. J., Farr, A. L. and Randall, R. J. Protein measurement with the folin reagent. […] The concentration of drug which inhibits the uptake of the labeled amine by 50% is determined by Hill analysis of the data."}, "[5]": {"settings": "5 mg/kg i.p. 7 days, Baseline period"}, "[6]": {"settings": "5 mg/kg i.p. 7 days, Post-Treatment period"}, "[7]": {"settings": "10 mg/kg i.p. 7 days, Baseline period"}, "[8]": {"settings": "10 mg/kg i.p. 7 days, Post-Treatment period"}, "[9]": {"settings": "20 mg/kg i.p. 7 days, Baseline period"}, "[10]": {"settings": "20 mg/kg i.p. 7 days, Baseline period, hydrochloride, 20 mg/kg"}, "[11]": {"settings": "20 mg/kg i.p. 7 days, Post-Treatment period"}, "[12]": {"settings": "20 mg/kg i.p. 7 days, Post-Treatment period, hydrochloride, 20 mg/kg"}}, "note": "pIC50: −log10 of the molar value. Where “and” joins values, the source holds several entries; their conditions need not be identical. Identical values can stand only once. Entries after “also recorded” stand apart in the source; their conditions may differ.", "data": [{"smiles": "Cl.Clc1ccc(C23CNCC2C3)cc1Cl", "note": "(centres unmarked) [1-(3,4-dichlorophenyl)-3-azabicyclo[3.1.0]hexane hydrochloride]", "values": [{"measurement": "Ethanol Intake", "setting": "[1]; [5]", "result": "5.02 ± 1.16", "unit": "g/kg body weight"}, {"measurement": "Ethanol Preference", "setting": "[1]; [5]", "result": "83.67 ± 14.58", "unit": "%"}, {"measurement": "Food Consumption", "setting": "[1]; [5]", "result": "19.74 ± 1.65", "unit": "g/day"}, {"measurement": "Total Fluid Intake", "setting": "[1]; [5]", "result": "5.1937 ± 0.5254", "unit": "mL/h/kg"}, {"measurement": "Ethanol Intake", "setting": "[1]; [6]", "result": "4.86 ± 1.78", "unit": "g/kg body weight"}, {"measurement": "Ethanol Preference", "setting": "[1]; [6]", "result": "82.39 ± 20.87", "unit": "%"}, {"measurement": "Food Consumption", "setting": "[1]; [6]", "result": "19.50 ± 1.41", "unit": "g/day"}, {"measurement": "Total Fluid Intake", "setting": "[1]; [6]", "result": "5.025 ± 0.9108", "unit": "mL/h/kg"}, {"measurement": "Ethanol Intake", "setting": "[1]; [7]", "result": "4.55 ± 0.90", "unit": "g/kg body weight"}, {"measurement": "Ethanol Preference", "setting": "[1]; [7]", "result": "75.05 ± 16.53", "unit": "%"}, {"measurement": "Food Consumption", "setting": "[1]; [7]", "result": "20.43 ± 1.55", "unit": "g/day"}, {"measurement": "Total Fluid Intake", "setting": "[1]; [7]", "result": "5.3292 ± 0.6617", "unit": "mL/h/kg"}, {"measurement": "Ethanol Intake", "setting": "[1]; [8]", "result": "2.99 ± 1.42", "unit": "g/kg body weight"}, {"measurement": "Ethanol Preference", "setting": "[1]; [8]", "result": "55.90 ± 28.51", "unit": "%"}, {"measurement": "Food Consumption", "setting": "[1]; [8]", "result": "21.32 ± 1.96", "unit": "g/day"}, {"measurement": "Total Fluid Intake", "setting": "[1]; [8]", "result": "4.8087 ± 0.6483", "unit": "mL/h/kg"}, {"measurement": "Food Consumption", "setting": "[1]; [9]", "result": "20.28 ± 1.12", "unit": "g/day"}, {"measurement": "Total Fluid Intake", "setting": "[1]; [9]", "result": "4.84 ± 0.4304", "unit": "mL/h/kg"}, {"measurement": "Ethanol Intake", "setting": "[1]; [10]", "result": "3.79 g/kg body weight and 3.80 ± 1.00 g/kg body weight"}, {"measurement": "Ethanol Preference", "setting": "[1]; [10]", "result": "67.94% and 67.94 ± 17.05%"}, {"measurement": "Food Consumption", "setting": "[1]; [11]", "result": "20.88 ± 2.08", "unit": "g/day"}, {"measurement": "Total Fluid Intake", "setting": "[1]; [11]", "result": "4.4675 ± 0.4983", "unit": "mL/h/kg"}, {"measurement": "Ethanol Intake", "setting": "[1]; [12]", "result": "3.04 g/kg body weight and 3.04 ± 1.34 g/kg body weight"}, {"measurement": "Ethanol Preference", "setting": "[1]; [12]", "result": "58.66% and 58.66 ± 23.98%"}, {"measurement": "Ethanol Preference", "setting": "[1]; 20 mg/kg i.p. 7 days, Treatment period, hydrochloride, 20 mg/kg", "result": "25.55% and 25.55 ± 17.28%"}, {"measurement": "Voluntary ethanol consumption (overall statement)", "setting": "[1]; rats, 5, 10 and 20 mg/kg i.p. 7 days, hydrochloride", "result": "reduces ethanol intake and ethanol preferences; also recorded: significant effect in attenuating voluntary ethanol consumption"}, {"measurement": "pIC50", "setting": "[2]", "result": "[…]"}, {"measurement": "pIC50", "setting": "[3]", "result": "[…]"}, {"measurement": "pIC50", "setting": "[4]", "result": "[…]"}]}]}
